# Measurements as given in patent US20220144853A1, “IMIDAZOLINE DERIVATIVES AS CXCR4 MODULATORS” (Université de Paris, priority 2019, published 2022).
# Counter-ions that a name gives are not always drawn.
row,SMILES,melting point
1,"CC1(C)CN=C(SCC2=CSC3=NC(C)(C)CN23)NC1 (as salt: hydrochloride) [Example 28, 3-(((5,5-dimethyl-1,4,5,6-tetrahydropyrimidin-2-yl)thio)methyl)-6,6-dimethyl-5,6-dihydroimidazo[2,1-b]thiazole dihydrochloride]",> 250 °C
2,"C1=C(CSC2=NCCCN2)N2CCCN=C2S1 (as salt: hydrochloride) [Example 29, 3-(((1,4,5,6-tetrahydropyrimidin-2-yl)thio)methyl)-6,7-dihydro-5H-thiazolo[3,2-a]pyrimidine dihydrochloride]",> 250 °C
3,"CCCCC1CN=C(SCC2=CSC3=NCCN23)N1 (centres unmarked) (as salt: hydrochloride) [Example 30, 3-(((5-butyl-4,5-dihydro-1H-imidazol-2-yl)thio)methyl)-5,6-dihydroimidazo[2,1-b]thiazole dihydrochloride]",176 to 178 °C
4,"CC1(C)CN=C2SC=C(CSC3=NCC(C)(C)N3)N2C1 (as salt: hydrochloride) [Example 34, 3-(((5,5-dimethyl-4,5-dihydro-1H-imidazol-2-yl)thio)methyl)-6,6-dimethyl-6,7-dihydro-5H-thiazolo[3,2-a]pyrimidine dihydrochloride]",169 to 175 °C
5,"C1=C(CSC2=NCCCN2)N2CCN=C2S1 (as salt: hydrochloride) [Example 35, 3-(((1,4,5,6-tetrahydropyrimidin-2-yl)thio)methyl)-5,6-dihydroimidazo[2,1-b]thiazole dihydrochloride]",100 to 102 °C
6,"C1=C(CSC2=NCCCN2)N2CCCCN=C2S1 (as salt: hydrochloride) [Example 37, 3-(((1,4,5,6-tetrahydropyrimidin-2-yl)thio)methyl)-5,6,7,8-tetrahydrothiazolo[3,2-a][1,3]diazepine dihydrochloride]",> 250 °C
7,"CC1(C)CN2C(CSC3=NCC4(CCCCC4)N3)=CSC2=N1 (as salt: hydrochloride) [Example 39, 3-(((1,3-diazaspiro[4.5]dec-2-en-2-yl)thio)methyl)-6,6-dimethyl-5,6-dihydroimidazo[2,1-b]thiazole dihydrochloride]",225 to 231 °C
8,"CC1(C)CN2C(CSC3=NCC4CCCCC4N3)=CSC2=N1 (centres unmarked) (as salt: hydrochloride) [Example 40, 6,6-dimethyl-3-(((1,4,4a,5,6,7,8,8a-octahydroquinazolin-2-yl)thio)methyl)-5,6-dihydroimidazo[2,1-b]thiazole dihydrochloride]",245 to 249 °C
9,"CC1(C)CN=C(SCCc2cccc3ncccc23)N1 (as salt: hydrochloride) [Example 41, 5-(2-((5,5-dimethyl-4,5-dihydro-1H-imidazol-2-yl)thio)ethyl)quinoline dihydrochloride]",240 to 245 °C
10,"CC1(C)CN=C(SCC2=CSC3=NC4(CCCCC4)CN23)N1 (as salt: hydrochloride) [Example 42, 3′-(((5,5-dimethyl-4,5-dihydro-1H-imidazol-2-yl)thio)methyl)-5′H-spiro[cyclohexane-1,6′-imidazo[2,1-b]thiazole] dihydrochloride]",190 to 198 °C
11,"CC1(C)CN=C(SCC2=CSC3=NC4CCCCC4CN23)N1 (centres unmarked) (as salt: hydrochloride) [Example 43, 3-(((5,5-dimethyl-4,5-dihydro-1H-imidazol-2-yl)thio)methyl)-5a,6,7,8,9,9a-hexahydro-5H-thiazolo[2,3-b]quinazoline dihydrochloride]",241 to 245 °C
12,"C1=C(CSC2=N[C@@H]3CCCC[C@H]3N2)N2CCN=C2S1 (as salt: hydrochloride) [Example 44, 3-((((3aR,7aR)-3a,4,5,6,7,7a-hexahydro-1H-benzo[d]imidazol-2-yl)thio)methyl)-5,6-dihydroimidazo[2,1-b]thiazole dihydrochloride]",230 to 233 °C
13,"C1=C(CSC2=N[C@@H]3CCCC[C@H]3N2)N2CCCN=C2S1 (as salt: hydrochloride) [Example 45, 3-((((3aR,7aR)-3a,4,5,6,7,7a-hexahydro-1H-benzo[d]imidazol-2-yl)thio)methyl)-6,7-dihydro-5H-thiazolo[3,2-a]pyrimidine dihydrochloride]",> 250 °C
14,"C1=C(CSC2=N[C@@H]3CCCC[C@H]3N2)N2CCCCN=C2S1 (as salt: hydrochloride) [Example 46, 3-((((3aR,7aR)-3a,4,5,6,7,7a-hexahydro-1H-benzo[d]imidazol-2-yl)thio)methyl)-5,6,7,8-tetrahydrothiazolo[3,2-a][1,3]diazepine dihydrochloride]",> 250 °C
15,"C1=C(CSC2=NCC(Cc3ccccc3)N2)N2CCCN=C2S1 (centres unmarked) (as salt: hydrochloride) [Example 48, 3-(((5-benzyl-4,5-dihydro-1H-imidazol-2-yl)thio)methyl)-6,7-dihydro-5H-thiazolo[3,2-a]pyrimidine dihydrochloride]",50 to 53 °C
16,"CC(C)C1CN=C(SCC2=CSC3=NC(C)(C)CN23)N1 (centres unmarked) (as salt: hydrochloride) [Example 49, 3-(((5-isopropyl-4,5-dihydro-1H-imidazol-2-yl)thio)methyl)-6,6-dimethyl-5,6-dihydroimidazo[2,1-b]thiazole dihydrochloride]",234 to 237 °C
17,"CC1(C)CN=C(SCC2=CSC3=NC(c4ccccc4)CN23)N1 (centres unmarked) (as salt: hydrochloride) [Example 50, 3-(((5,5-dimethyl-4,5-dihydro-1H-imidazol-2-yl)thio)methyl)-6-phenyl-5,6-dihydroimidazo[2,1-b]thiazole dihydrochloride]",245 to 247 °C
18,"CCCCC1CN=C(SCC2=CSC3=NC(Cc4ccccc4)CN23)N1 (centres unmarked) (as salt: hydrochloride) [Example 51, 6-benzyl-3-(((5-butyl-4,5-dihydro-1H-imidazol-2-yl)thio)methyl)-5,6-dihydroinidazo[2,1-b]thiazole dihydrochloride]",150 to 154 °C
19,"CC(C)C1CN2C(CSC3=NCC(C)(C)N3)=CSC2=N1 (centres unmarked) (as salt: hydrochloride) [Example 52, 3-(((5,5-dimethyl-4,5-dihydro-1H-imidazol-2-yl)thio)methyl)-6-isopropyl-5,6-dihydroimidazo[2,1-b]thiazole dihydrochloride]",227 to 232 °C
20,"CC1(C)CN2C(CSC3=NCC(c4ccccc4)N3)=CSC2=N1 (centres unmarked) (as salt: hydrochloride) [Example 53, 6,6-dimethyl-3-(((4-phenyl-4,5-dihydro-1H-imidazol-2-yl)thio)methyl)-5,6-dihydroimidazo[2,1-b]thiazole dihydrochloride]",110 to 120 °C
21,"CN1CCCN=C1SCC1=CSC2=NC(C)(C)CN12 (as salt: hydrochloride) [Example 57, 6,6-dimethyl-3-(((1-methyl-1,4,5,6-tetrahydropyrimidin-2-yl)thio)methyl)-5,6-dihydroimidazo[2,1-b]thiazole dihydrochloride]",245 to 249 °C
22,"CC(C)[C@@H]1N=C(SCC2=CSC3=NC(C)(C)CN23)N[C@H]1C(C)C (as salt: hydrochloride) [Example 58, 3-((((4S,5S)-4,5-diisopropyl-4,5-dihydro-1H-imidazol-2-yl)thio)methyl)-6,6-dimethyl-5,6-dihydroimidazo[2,1-b]thiazole dihydrochloride]",154 to 160 °C
23,"C1=C(CSC2=NCC(Cc3ccccc3)N2)N2CC(Cc3ccccc3)N=C2S1 (centres unmarked) (as salt: hydrochloride) [Example 60, 6-benzyl-3-(((5-benzyl-4,5-dihydro-1H-imidazol-2-yl)thio)methyl)-5,6-dihydroimidazo[2,1-b]thiazole dihydrochloride]",117 to 121 °C
24,"C1=C(CSC2=N[C@@H]3CCCC[C@H]3N2)N2CC(Cc3ccccc3)N=C2S1 (stereo partly drawn) (as salt: hydrochloride) [Example 61, 6-benzyl-3-((((3aR,7aR)-3a,4,5,6,7,7a-hexahydro-1H-benzo[d]imidazol-2-yl)thio)methyl)-5,6-dihydroimidazo[2,1-b]thiazole dihydrochloride]",125 to 130 °C
25,"CC1(C)CN2C(=N1)SC(I)=C2CSC1=NCC(C)(C)N1 (as salt: hydrochloride) [Example 66, 3-(((5,5-dimethyl-4,5-dihydro-1H-imidazol-2-yl)thio)methyl)-2-iodo-6,6-dimethyl-5,6-dihydroimidazo[2,1-b]thiazole dihydrochloride]",169 to 180 °C (dec.)
26,"CC1(C)CN2C(=N1)SCC2SC1=NCC(C)(C)N1 (centres unmarked) (as salt: hydrochloride) [Example 70, 3-((5,5-dimethyl-4,5-dihydro-1H-imidazol-2-yl)thio)-6,6-dimethyl-2,3,5,6-tetrahydroimidazo[2,1-b]thiazole dihydrochloride]",240 to 243 °C
27,"C1=C(CSC2=N[C@H]3COC[C@H]3N2)N2C(=N[C@@H]3COC[C@@H]32)S1 (mixture of isomers) (as salt: hydrochloride) [Example 36, mixture of (4aS,7aR)-3-((((3aS,6aR)-3a,4,6,6a-tetrahydro-1H-furo[3,4-d]imidazol-2-yl)thio)methyl)-4a,5,7,7a-tetrahydrofuro[3′,4′:4,5]imidazo[2,1-b]thiazole dihydrochloride and (4aR,7aS)-3-((((3aR,6aS)-3a,4,6,6a-tetrahydro-1H-furo[3,4-d]imidazol-2-yl)thio)methyl)-4a,5,7,7a-tetrahydrofuro[3′,4′: 4,5]imidazo[2,1-b]thiazole dihydrochloride]",> 250 °C
28,"CC1(C)CN=C(SCC2=CSC3=N[C@H]4CCCC[C@@H]4N23)N1 (racemic) (as salt: hydrochloride) [Example 7, trans-3-(((4,4-dimethyl-4,5-dihydro-1H-imidazol-2-yl)thio)methyl)-4a,5,6,7,8,8a-hexahydrobenzo[4,5]imidazo[2,1-b]thiazole dihydrochloride]",248 to 252 °C
29,"CC1(C)CN=C(SCC2=CSC3=N[C@H]4CCCC[C@H]4N23)N1 (racemic) (as salt: hydrochloride) [Example 10, cis-3-(((4,4-dimethyl-4,5-dihydro-1H-imidazol-2-yl)thio)methyl)-4a,5,6,7,8,8a-hexahydrobenzo[4,5]imidazo[2,1-b]thiazole dihydrochloride]",210 to 215 °C
